As a reminder, the IC50 is the concentration needed to halve the response being measured. By EC50 is commonly meant the concentration giving half of the maximal effect. A high value points to a need for much substance.

The record followed here is ChEMBL document CHEMBL5512603, “Development of de-novo coronavirus 3-chymotrypsin-like protease (3CLpro) inhibitors since COVID-19 outbreak: A strategy to tackle challenges of persistent virus infection” (Eur J Med Chem, 2024).

Assay [1] addresses T1, Replicase polyprotein 1ab (Severe acute respiratory syndrome coronavirus 2, UniProt P0DTD1). Put plainly: Inhibition of SARS-CoV-2 3CLp by mass spectrometry.
Assay [2] has as its target T1, Replicase polyprotein 1ab. Put plainly: Inhibition of SARS-CoV-2 3CLp.
Assay [3] deals with Protein cereblon/Replicase polyprotein 1ab (Severe acute respiratory syndrome coronavirus 2, UniProt P0DTD1+Q96SW2). Put plainly: PROTAC activity at SARS-CoV-2 Main protease/CRBN E3 ligase (unknown origin).
Sequence of Protein cereblon/Replicase polyprotein 1ab (Q96SW2 whole entry, other chains not shown): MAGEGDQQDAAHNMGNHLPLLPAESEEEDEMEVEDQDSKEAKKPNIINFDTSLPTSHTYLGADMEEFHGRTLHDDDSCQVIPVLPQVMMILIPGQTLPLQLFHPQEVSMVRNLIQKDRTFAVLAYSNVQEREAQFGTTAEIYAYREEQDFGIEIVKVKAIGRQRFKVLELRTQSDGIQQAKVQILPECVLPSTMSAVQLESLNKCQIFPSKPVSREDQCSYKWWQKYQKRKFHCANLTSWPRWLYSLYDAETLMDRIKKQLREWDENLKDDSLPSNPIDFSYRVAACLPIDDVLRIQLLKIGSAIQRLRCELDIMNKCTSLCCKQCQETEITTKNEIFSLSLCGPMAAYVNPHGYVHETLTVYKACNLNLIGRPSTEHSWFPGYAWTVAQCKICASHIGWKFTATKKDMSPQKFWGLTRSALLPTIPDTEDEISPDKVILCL
Assay [4] deals with T1, Replicase polyprotein 1ab. Description: Inhibition of SARS-CoV-2 3CLp using fluorescent substrate by FRET assay.

On to `Cn1cnc(Cn2c(=O)nc(Nc3cc4sc(N)nc4cc3Cl)n(Cc3cc(F)c(F)c(Cl)c3)c2=O)n1`, for which the IC50 in assay [1] was under 1000 nM.

`Cn1cc2cc(/N=c3\[nH]c(=O)n(Cc4cn(CCCC(=O)Nc5cccc6c5C(=O)N(C5CCC(=O)NC5=O)C6)nn4)c(=O)n3Cc3cc(F)c(F)cc3F)c(Cl)cc2n1` (stereo not given) showed an IC50 in assay [2] of over 100 nM. In assay [3], this molecule showed an EC50 of under 100 nM.

The molecule `Cn1cnc(Cn2c(=O)cc(Nc3cc4cn(C)nc4cc3C(F)(F)F)n(Cc3cc(Cl)c(Cl)cc3F)c2=O)n1` displayed an IC50 in assay [1] of 14 nM. This counts as double-digit nanomolar.

In assay [2], `Cn1cc2cc(/N=c3\[nH]c(=O)n(Cc4cn(CCCCC(=O)Nc5cccc6c5C(=O)N(C5CCC(=O)NC5=O)C6)nn4)c(=O)n3Cc3cc(F)c(F)cc3F)c(Cl)cc2n1` (stereo not given) gave an IC50 of under 100 nM. In assay [3], the EC50 is under 100 nM.

Turning to `CCn1cc2cc(Nc3nc(=O)n(-c4cncc(Cl)c4)c(=O)n3Cc3cc(C#N)ccc3C)ccc2n1`, half-maximal inhibition in assay [1] (IC50) required 234 nM.

In turn, `Cn1cc2cc(/N=c3\[nH]c(=O)n(Cc4cn(CCC(=O)Nc5cccc6c5C(=O)N(C5CCC(=O)NC5=O)C6=O)nn4)c(=O)n3Cc3cc(F)c(F)cc3F)c(Cl)cc2n1` (stereo not given) registered a half-inhibitory concentration (IC50) in assay [2] of over 100 nM. Moreover, in assay [3], the concentration for a half-maximal effect (EC50) was over 100 nM.

`COc1ccc(Nc2nc(=O)n(Cc3ccc[nH]c3=O)c(=O)n2Cc2cc(F)c(F)c(F)c2)cc1` registered an IC50 in assay [1] of under 1000 nM.

For `O=C(O)c1ccc(Nc2nc(=O)n(Cc3ccc[nH]c3=O)c(=O)n2Cc2cc(F)c(F)c(F)c2)cc1`, the half-maximal inhibitory concentration (IC50) in assay [1] was under 1000 nM.

`Cn1cc2cc(Nc3nc(=O)n(Cc4ccc[nH]c4=O)c(=O)n3Cc3cc(F)c(F)c(F)c3)c(Cl)cc2n1` had an IC50 in assay [1] of under 1000 nM.

For the molecule `Cn1cc2cc(/N=c3\[nH]c(=O)n(Cc4cn(CCOCCOCCOCC(=O)Nc5cccc6c5C(=O)N(C5CCC(=O)NC5=O)C6)nn4)c(=O)n3Cc3cc(F)c(F)cc3F)c(Cl)cc2n1` (stereo not given), the IC50 in assay [2] was over 100 nM. In addition, in assay [3], the EC50 was under 100 nM.

As for `Cn1cc2cc(/N=c3\[nH]c(=O)n(Cc4cn(CCCC(=O)Nc5cccc6c5C(=O)N(C5CCC(=O)NC5=O)C6=O)nn4)c(=O)n3Cc3cc(F)c(F)cc3F)c(Cl)cc2n1` (stereo not given), the IC50 in assay [2] was under 100 nM. In assay [3], this molecule showed an EC50 of under 100 nM.

In assay [2], `Cn1cc2cc(/N=c3\[nH]c(=O)n(Cc4cn(CCOCC(=O)Nc5cccc6c5C(=O)N(C5CCC(=O)NC5=O)C6)nn4)c(=O)n3Cc3cc(F)c(F)cc3F)c(Cl)cc2n1` (stereo not given) gave an IC50 of over 100 nM. In assay [3], this molecule registered an EC50 of under 100 nM.

`Cn1cnc(Cn2c(=O)cc(Nc3cc4cn(C)nc4cc3OC(F)(F)F)n(Cc3cc(F)c(F)cc3F)c2=O)n1` had an IC50 in assay [1] of 10 nM.

The molecule `O=C1c2c(O)cc(O)c([Se][Se]c3c(O)cc(O)c4c3OC(c3cc(O)c(O)c(O)c3)C(O)C4=O)c2CC(c2cc(O)c(O)c(O)c2)C1O` (stereo not given) had an IC50 in assay [4] of 810 nM.

For the molecule `CCn1cc2cc(Nc3nc(=O)n(-c4cncc(Cl)c4)c(=O)n3Cc3cc(C#N)ccc3Cl)ccc2n1`, the concentration for half-maximal inhibition (IC50) in assay [1] came out at 355 nM. This counts as sub-micromolar.

The molecule `Cc1cncc(-n2c(=O)nc(Nc3cc4cn(C)nc4cc3Cl)n(Cc3cc(C#N)c(F)cc3C)c2=O)c1` yielded an IC50 in assay [1] of 35 nM.

For `Cn1cc2cc(/N=c3\[nH]c(=O)n(Cc4cn(CCOCC(=O)Nc5cccc6c5C(=O)N(C5CCC(=O)NC5=O)C6=O)nn4)c(=O)n3Cc3cc(F)c(F)cc3F)c(Cl)cc2n1` (stereo not given), the IC50 in assay [2] was over 100 nM. The same molecule showed an EC50 in assay [3] of under 100 nM.

In assay [2], `Cn1cc2cc(/N=c3\[nH]c(=O)n(Cc4cn(CCCCCCC(=O)Nc5cccc6c5C(=O)N(C5CCC(=O)NC5=O)C6)nn4)c(=O)n3Cc3cc(F)c(F)cc3F)c(Cl)cc2n1` (stereo not given) had a half-inhibitory concentration (IC50) of over 100 nM. Moreover, in assay [3], the concentration giving a half-maximal response (EC50) is under 100 nM.

In assay [1], `COc1ccc(Nc2nc(=O)n(Cc3ccc[nH]c3=O)c(=O)n2Cc2cc(F)c(F)c(F)c2)c(OC)c1` yielded an IC50 of under 1000 nM.

Consider `O=c1[nH]cccc1Cn1c(=O)nc(Nc2cc3cn(C4CCOCC4)nc3cc2Cl)n(Cc2cc(F)c(F)c(F)c2)c1=O`, for which, in assay [1], the IC50 was under 1000 nM.

In assay [2], `Cn1cc2cc(/N=c3\[nH]c(=O)n(Cc4cn(CCCCCCCC(=O)Nc5cccc6c5C(=O)N(C5CCC(=O)NC5=O)C6)nn4)c(=O)n3Cc3cc(F)c(F)cc3F)c(Cl)cc2n1` (stereo not given) yielded a half-maximal inhibitory concentration (IC50) of over 100 nM. The same molecule gave an EC50 in assay [3] of over 100 nM.

Turning to `Cn1cc2cc(/N=c3\[nH]c(=O)n(Cc4cn(CCC(=O)Nc5cccc6c5C(=O)N(C5CCC(=O)NC5=O)C6)nn4)c(=O)n3Cc3cc(F)c(F)cc3F)c(Cl)cc2n1` (stereo not given), in assay [2], the half-maximal inhibitory concentration (IC50) is over 100 nM. In addition, in assay [3], the concentration giving a half-maximal response (EC50) was over 100 nM.

As to `Cn1cnc(Cn2c(=O)cc(Nc3cc4cn(C)nc4cc3Cl)n(Cc3cc(F)c(F)cc3F)c2=O)n1`, in assay [1], the IC50 is 10 nM.

In assay [2], `Cn1cc2cc(/N=c3\[nH]c(=O)n(Cc4cn(CCCCCC(=O)Nc5cccc6c5C(=O)N(C5CCC(=O)NC5=O)C6=O)nn4)c(=O)n3Cc3cc(F)c(F)cc3F)c(Cl)cc2n1` (stereo not given) registered an IC50 of under 100 nM. Further, in assay [3], the EC50 is under 100 nM.

For the molecule `Cn1cnc(Cn2c(=O)cc(Nc3cc4cn(C)nc4cc3F)n(Cc3cc(Cl)c(F)cc3F)c2=O)n1`, inhibition in assay [1] was half-maximal at 18 nM (IC50).

`CC(=O)NCCn1cc2cc(Nc3nc(=O)n(Cc4ccc[nH]c4=O)c(=O)n3Cc3cc(F)c(F)c(F)c3)c(Cl)cc2n1` registered a 50% inhibitory concentration (IC50) in assay [1] of under 1000 nM.

`Cn1cc2cc(/N=c3\[nH]c(=O)n(Cc4cn(CCCCCCC(=O)Nc5cccc6c5C(=O)N(C5CCC(=O)NC5=O)C6=O)nn4)c(=O)n3Cc3cc(F)c(F)cc3F)c(Cl)cc2n1` (stereo not given) came in with a 50% inhibitory concentration (IC50) in assay [2] of under 100 nM. The molecule also returned an EC50 in assay [3] of over 100 nM.

On to `Cn1cc2cc(/N=c3\[nH]c(=O)n(Cc4cn(CCCCCCCC(=O)Nc5cccc6c5C(=O)N(C5CCC(=O)NC5=O)C6=O)nn4)c(=O)n3Cc3cc(F)c(F)cc3F)c(Cl)cc2n1` (stereo not given), for which the IC50 in assay [2] was over 100 nM. The molecule further registered an EC50 in assay [3] of over 100 nM.

Molecule `Cc1cc(Cn2c(Nc3cc4cn(C)nc4cc3Cl)cc(=O)n(Cc3ncn(C)n3)c2=O)c(F)cc1F` yielded a 50% inhibitory concentration (IC50) in assay [1] of 12 nM.

`Cn1cc2cc(/N=c3\[nH]c(=O)n(Cc4cn(CCCCC(=O)Nc5cccc6c5C(=O)N(C5CCC(=O)NC5=O)C6=O)nn4)c(=O)n3Cc3cc(F)c(F)cc3F)c(Cl)cc2n1` (stereo not given) displayed a concentration for half-maximal inhibition (IC50) in assay [2] of under 100 nM. The 50% effective concentration (EC50) in assay [3] was under 100 nM.

`Cc1nc2cc(Br)c(Nc3nc(=O)n(Cc4ncn(C)n4)c(=O)n3Cc3cc(F)c(F)c(F)c3)cc2s1` showed a half-inhibitory concentration (IC50) in assay [1] of under 1000 nM.

On to `Cn1cc2cc(/N=c3\[nH]c(=O)n(Cc4cn(CCOCCOCC(=O)Nc5cccc6c5C(=O)N(C5CCC(=O)NC5=O)C6=O)nn4)c(=O)n3Cc3cc(F)c(F)cc3F)c(Cl)cc2n1` (stereo not given), for which, in assay [2], the half-maximal inhibitory concentration (IC50) was under 100 nM. Also, the EC50 in assay [3] was under 100 nM.

In turn, `Cn1cc2cc(/N=c3\[nH]c(=O)n(Cc4cn(CCCCCC(=O)Nc5cccc6c5C(=O)N(C5CCC(=O)NC5=O)C6)nn4)c(=O)n3Cc3cc(F)c(F)cc3F)c(Cl)cc2n1` (stereo not given) showed a half-maximal inhibitory concentration (IC50) in assay [2] of under 100 nM. The molecule also displayed a 50% effective concentration (EC50) in assay [3] of under 100 nM.

As for `Cn1cnc(Cn2c(=O)nc(Nc3cc4sc(NCC(F)F)nc4cc3Cl)n(Cc3cc(F)c(F)c(F)c3)c2=O)n1`, the IC50 in assay [1] was under 1000 nM.

With `CC(C)(O)Cn1cc2cc(Nc3nc(=O)n(Cc4ccc[nH]c4=O)c(=O)n3Cc3cc(F)c(F)c(F)c3)c(Cl)cc2n1`, the IC50 in assay [1] was under 1000 nM.

Regarding `CC(=O)Nc1nc2cc(Cl)c(Nc3nc(=O)n(Cc4ncn(C)n4)c(=O)n3Cc3cc(F)c(F)c(Cl)c3)cc2s1`, the IC50 in assay [1] is under 1000 nM.

The molecule `Cn1cc2cc(/N=c3\[nH]c(=O)n(Cc4cn(CCOCCOCC(=O)Nc5cccc6c5C(=O)N(C5CCC(=O)NC5=O)C6)nn4)c(=O)n3Cc3cc(F)c(F)cc3F)c(Cl)cc2n1` (stereo not given) had a 50% inhibitory concentration (IC50) in assay [2] of under 100 nM. The EC50 in assay [3] was under 100 nM.

With `CN(C)CCn1cc2cc(Nc3nc(=O)n(Cc4ccc[nH]c4=O)c(=O)n3Cc3cc(F)c(F)c(F)c3)c(Cl)cc2n1`, the concentration for half-maximal inhibition (IC50) in assay [1] was under 1000 nM.
